Laboratory results as given in PubChem BioAssay (NCI).
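1) Cells in 96-well plates. 2) Compound, 48 h, 5 concentrations. 3) Linear interpolation between surrounding doses. 4) Unreached endpoint = highest concentration. GI50 marks 50% less growth. The concentration for full growth arrest is given as TGI.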

What was measured:
Assay in all cases: NCI tumour cell line growth inhibition, 48 h
[1] = system: HL-60(TB) leukemia
[2] = system: EKVX NSCLC
[3] = system: SW-620 colon
[4] = system: MCF7 breast
[5] = system: MDA-MB-231 breast
[6] = system: SNB-19 CNS
[7] = system: SK-MEL-2 melanoma
[8] = system: BT-549 breast
[9] = system: NCI-H23 lung
[10] = system: T-47D breast

Row | SMILES | TGI [1] [µM] | TGI [2] [µM] | TGI [3] [µM] | TGI [4] [µM] | TGI [5] [µM] | TGI [6] [µM] | TGI [7] [µM] | TGI [8] [µM] | TGI [9] [µM] | TGI [10] [µM] | GI50 [1] [µM] | GI50 [2] [µM] | GI50 [3] [µM] | GI50 [4] [µM] | GI50 [5] [µM] | GI50 [6] [µM] | GI50 [9] [µM] | GI50 [10] [µM]
1 | COc1ccc2nc(-c3ccc(O)cc3)sc2c1 | 53.5 | 35.7 | 44.5 | > 100 | 46.9 | > 100 | > 100 | 36.3 | 43.6 | 36.7 | – | – | – | – | – | – | – | –
2 | COc1cc(Cc2nccc3cc(OC)c(OC)cc23)c(N=NN(C)C)cc1OC | – | 42.4 | 37.9 | 37.3 | 36.6 | 85.2 | 70.2 | 44 | 48.7 | 25.4 | – | – | – | – | – | – | – | –
3 | Cc1ccnc(NC(NC(=O)c2ccccc2)(C(F)(F)F)C(F)(F)F)c1 | > 100 | > 100 | > 100 | > 100 | > 100 | > 100 | > 100 | > 100 | > 100 | > 100 | – | – | – | – | – | – | – | –
4 | N#Cc1c(N)nc(Sc2ccccc2N)c(C#N)c1-c1ccc(Cl)cc1 | > 100 | > 56.1 | > 100 | 29.6 | 35.7 | > 56.6 | 18.2 | 33.2 | > 63 | 4.24 | – | – | – | – | – | – | – | –
5 | Oc1ccc2c(c1)-c1c(c3ccccc3n1CCN1CCOCC1)CC2 | > 100 | > 100 | – | > 100 | > 100 | > 100 | 69.4 | > 100 | 69.1 | > 100 | – | – | – | – | – | – | – | –
6 | CCOC(=O)CCC(NC(=O)c1ccc(OCc2ccc3nc(-c4ccccc4)c(Cl)nc3c2)cc1)C(=O)OCC (stereo not given) | > 31.6 | > 31.6 | > 31.6 | > 31.6 | > 67.9 | 31.1 | > 100 | > 31.6 | > 31.6 | > 31.6 | – | – | – | – | – | – | – | –
7 | CC(=O)Nc1c(C)cc2c(nc3n2CCC3O)c1[N+](=O)[O-] (stereo not given) | > 100 | > 100 | > 100 | > 100 | > 100 | > 100 | > 100 | > 100 | > 100 | > 100 | – | – | – | – | – | – | – | –
8 | Nc1onc2c1Cc1c(noc1N)-c1ccccc1-2 | 49.7 | 66.1 | > 100 | > 100 | > 100 | > 100 | > 100 | 50.4 | > 100 | > 100 | – | – | – | – | – | – | – | –
9 | Cc1ccc(NC(=O)c2cc(S(=O)(=O)Nc3nc4ncccc4[nH]3)c(SSc3cc(Cl)c(C(=O)Nc4ccc(C)cc4)cc3S(=O)(=O)Nc3nc4ncccc4[nH]3)cc2Cl)cc1 | > 100 | > 100 | > 100 | > 100 | > 100 | > 100 | > 100 | > 100 | > 100 | > 100 | – | – | – | – | – | – | – | –
10 | CCCCCCCCCCCCC(O)[C@H]1CC[C@H](C(O)CCCCCC(=O)CCCCC2CC(C(C)=O)C(=O)O2)O1 (stereo not given in full) | > 29.5 | 54.8 | > 100 | > 51.6 | 44.6 | 73.9 | 28.3 | 59.5 | 63.8 | > 41.5 | 2.68 | 3.24 | 4.08 | 1.38 | 2.8 | 4.56 | 1.72 | 3.84
11 | O=c1/c(=C/c2ccc(-c3ccc(Cl)cc3Cl)o2)sc2n1[C@@H](c1ccc(Cl)cc1)C=C(c1cc(F)c(Cl)cc1Cl)N=2 | – | – | > 100 | > 100 | 59.2 | > 100 | > 100 | > 100 | > 100 | > 100 | – | – | – | – | – | – | – | –
12 | COc1ccc2c(c1)CCc1c-2n(CCN2CCCCC2)c2ccc(OC)cc12 | – | > 100 | > 100 | > 100 | > 100 | > 100 | > 100 | > 100 | > 100 | > 100 | – | – | – | – | – | – | – | –
13 | CCOC(=O)c1c(N2CCOCC2)[nH]c(=O)c(C(c2ccco2)c2c(O)c(C(=O)OCC)c(N3CCOCC3)[nH]c2=O)c1O | – | > 100 | > 100 | > 100 | > 100 | > 100 | > 100 | > 100 | > 100 | > 100 | – | – | – | – | – | – | – | –
14 | OCCNCNc1nc(NCNCCO)nc(N(CNCCO)CNCCO)n1 | 63.8 | 57 | > 54 | > 78.9 | 52.7 | 38.1 | 40.9 | 46 | 46.1 | 61.1 | – | – | – | – | – | – | – | –
15 | O=C(O)CN1C(=O)C(Cc2ccc(O)cc2)N=C(c2cccc(O)c2)c2ccccc21 (stereo not given) | > 100 | > 100 | > 100 | > 100 | > 100 | > 100 | > 100 | > 100 | – | > 100 | – | – | – | – | – | – | – | –
16 | CC(C)CC(NC(=O)OC(C)(C)C)C(=O)Nc1ccc(Nc2nc(F)nc(-c3c4ccccc4cn3C)n2)cc1 (stereo not given) | 33 | > 81.1 | > 54.4 | 31.4 | > 100 | > 100 | > 100 | > 100 | > 100 | > 100 | – | – | – | – | – | – | – | –
17 | CCCCCCCCCCNC(=O)CCC(NC(=O)c1ccc(N(C)Cc2cnc3nc(N)nc(N)c3n2)cc1)C(=O)NCCCCCCCCCC (stereo not given) | > 25.3 | > 78.3 | 13.5 | 15.3 | 11.3 | 31.7 | 30.4 | 26.3 | 54.4 | 40.3 | – | – | – | – | – | – | – | –
18 | CC(=O)O[C@H]1[C@H](OC(=O)CC(C)(O)CC(=O)O)C[C@]2(C)C3=C(CCC2C1(C)C)[C@]1(C)CC[C@H]([C@H]2CC[C@H](C(C)(C)O)OC2O)[C@@]1(C)[C@@H](O)C3 (stereo not given in full) | 36.5 | 38.9 | 27.2 | 45.8 | 32.4 | 33.6 | 37.1 | 29 | 32.2 | 40.2 | – | – | – | – | – | – | – | –
19 | CO/N=C(\C)c1cccc(Nc2c3ccccc3nc3occc23)c1 | 13.6 | 37.2 | – | 28.6 | 26.1 | 45.5 | 15.5 | 48.8 | 20.9 | 28.8 | – | – | – | – | – | – | – | –
